Molecules are shown by their SMILES.

For orientation: IC50 means the midpoint of a concentration-inhibition curve.

S1P3 receptor, sequence (Q99500 whole entry): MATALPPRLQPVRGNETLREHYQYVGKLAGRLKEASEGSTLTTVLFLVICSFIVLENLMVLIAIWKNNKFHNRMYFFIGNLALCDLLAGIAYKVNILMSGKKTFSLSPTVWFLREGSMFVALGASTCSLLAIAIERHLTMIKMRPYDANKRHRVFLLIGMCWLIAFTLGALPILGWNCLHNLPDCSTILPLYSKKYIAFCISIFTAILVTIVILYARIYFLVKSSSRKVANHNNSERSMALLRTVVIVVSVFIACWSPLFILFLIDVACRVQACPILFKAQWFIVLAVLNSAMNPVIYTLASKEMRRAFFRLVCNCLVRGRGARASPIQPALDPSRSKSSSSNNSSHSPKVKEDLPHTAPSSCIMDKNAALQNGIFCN

One experiment concerns the target S1P3 receptor (Homo sapiens, UniProt Q99500). Description: GTP γ35S binding assay, antagonist mode. The class given is biochemical. The note with it: antagonist assay, reaction mixture contained 10 nM S1P; membranes; read-out: S1P3 GTPγ^35S IC50. The protocol:
B. Novel compounds were synthesized and tested for S1P3 activity using the GTP γ^35S binding assay. GTP γ^35S binding was measured in the medium containing (mM) HEPES 25, pH 7.4, MgCl2 10, NaCl 100, dithiothreitol 0.5, digitonin 0.003%, 0.2 nM GTP γ^35S, and 5 μg membrane protein in a volume of 150 μl. Test compounds were included in the concentration range from 0.08 to 5,000 nM unless indicated otherwise. Membranes were incubated with 100 μM 5′-adenylylimmidodiphosphate for 30 min, and subsequently with 10 μM GDP for 10 min on ice. Drug solutions and membrane were mixed, and then reactions were initiated by adding GTP γ^35S and continued for 30 min at 25° C. Reaction mixtures were filtered over Whatman GF/B filters under vacuum, and washed three times with 3 mL of ice-cold buffer (HEPES 25, pH7.4, MgCl2 10 and NaCl 100). Filters were dried and mixed with scintillant, and counted for ^35S activity using a β-counter. Agonist-induced GTP γ^35S binding was obtained by subtracting that in the absence of agonist. Binding data were analyzed using a non-linear regression method. In case of antagonist assay, the reaction mixture contained 10 nM S1P in the presence of test antagonist at concentrations ranging from 0.08 to 5000 nM.
As to `CC1CCC(NC(NC(=O)c2ccc(Br)cc2)C(Cl)(Cl)Cl)CC1` (single isomer, unassigned) [Compound-49, 4-bromo-N-(2,2,2-trichloro-1-(4-methylcyclohexylamino)ethyl)benzamide], the IC50 amounted to 671 nM.
Take `O=C(NC(Nc1ccc(Cl)cc1)C(F)(F)C(F)(F)F)c1ccc(Br)cn1` (single isomer, unassigned; (-)) [Compound-32, (−)-5-bromo-N-(1-(4-chlorophenylamino)-2,2,3,3,3-pentafluoropropyl)picolinamide]: the IC50 was found to be 1.3 nM.
Consider `O=C(NC(Nc1ccc(Cl)cc1)C(=O)c1cccc2ccccc12)c1ccc(Br)cn1` (stereo not drawn) [Compound-1, 5-bromo-N-(1-(4-chlorophenylamino)-2-(naphthalen-1-yl)-2-oxoethyl)picolinamide], for which the IC50 was determined as 10 nM.
The same measure, in the same setting: to `O=C(NC(Nc1ccc(Cl)cc1)C(=O)c1ccc2ccccc2c1)c1ccc(Br)cn1` (stereo not drawn) [Compound-2, 5-bromo-N-(1-(4-chlorophenylamino)-2-(naphthalen-2-yl)-2-oxoethyl)picolinamide] belongs 31 nM.
Still for that read-out and setting: to `COc1cccc(C(=O)C(NC(=O)c2ccc(Br)cn2)Nc2ccc(Cl)cc2)c1` (stereo not drawn) [Compound-3, 5-bromo-N-(1-(4-chlorophenylamino)-2-(3-methoxyphenyl)-2-oxoethyl)picolinamide] belongs 5.2 nM; to `O=C(NC(Nc1ccc(Cl)cc1)c1ccc(Cl)cc1)c1ccc(Br)cn1` (stereo not drawn) [Compound-7, 5-Bromo-N-((4-chlorophenyl)(4-chlorophenylamino)methyl)picolinamide], 115 nM.
As to `O=C(NC(Nc1ccc(Cl)cc1)c1cc2ccccc2o1)c1ccc(Br)cn1` (stereo not drawn) [Compound-10, N-(benzofuran-2-yl(4-chlorophenylamino)methyl)-5-bromopicolinamide], the IC50 worked out at 4.7 nM.
Regarding `CCC(Cl)(Cl)C(NC(=O)c1ccc(Br)cn1)Nc1ccc(Cl)cc1` (stereo not drawn) [Compound-27, 5-Bromo-N-(2,2-dichloro-1-(4-chlorophenylamino)butyl)picolinamide], the half-maximal inhibitory concentration (IC50) came out at 56 nM.
With `O=C(NC(Nc1ccc(Cl)cc1)C(F)(F)C(F)(F)C(F)(F)C(F)(F)F)c1ccc(Br)cn1` (stereo not drawn) [Compound-29], the IC50 is 5.5 nM.
For the molecule `O=C(NC(Nc1cnc(Cl)nc1)C(F)(F)C(F)(F)F)c1ccc(Br)cn1` (stereo not drawn) [Compound-35, 5-Bromo-N-(1-(2-chloropyrimidin-5-ylamino)-2,2,3,3,3-pentafluoropropyl)picolinamide], the IC50 was determined as 2 nM.
For `O=C(NC(Nc1cnc(Cl)nc1)C(F)(F)C(F)(F)C(F)(F)C(F)(F)C(F)(F)C(F)F)c1ccc(Br)cn1` (stereo not drawn) [Compound-37, 5-Bromo-N-(1-(2-chloropyrimidin-5-ylamino)-2,2,3,3,4,4,5,5,6,6,7,7-dodecafluoroheptyl)picolinamide], the IC50 was 59 nM.

Staying with this experiment, now noted: enantiomers of Compound-28 separated by chiral HPLC; assay not stated.
Regarding `O=C(NC(Nc1ccc(Cl)cc1)C(F)(F)C(F)(F)F)c1ccc(Br)cn1` (single isomer, unassigned; (-)) [Compound-32, (−)-5-bromo-N-(1-(4-chlorophenylamino)-2,2,3,3,3-pentafluoropropyl)picolinamide], the “activity of separated enantiomer” value is listed as “active enantiomer”.

The values are drawn from patent US8168795B2, “Selective sphingosine-1-phosphate receptor antagonists” (Allergan, Inc., priority 2009, dated 2012).
